Source: patent publication US20050038022A1, “Method for treatment of cancer and compositions for use therein” (Unisearch Limited, priority 2001, published 2005)

Experiments:
[1] = tested on: liver tumors (CRC or HCC); assay: Albendazole in patients with advanced malignancy (phase 1 trial); assay type: in vivo, human
Description: The study was single-centre, open and non-controlled. Nine patients (8 male and 1 female) with either advanced CRC and hepatic metastasis or HCC were included in this study. One patient with neuroendocrine cancer and mesothelioma was also treated on a compassionate basis. The patients aged between 38-79 years were inoperable and had failed existing chemotherapy and also, except for two, had measurable and increasing tumor markers. The majority had also already failed hepatic artery chemotherapy. The diagnosis of CRC or HCC was made by ultrasound, CT or MRI scan, confirmed by histology and by determination of CEA or AFP levels for CRC or HCC respectively. Only patients with expected survival of more than one month were enrolled into the study. The study was approved by the Human Ethics Committee for Research of SESAHS. The protocol and the aim of the study was clearly explained to each patient and informed consent obtained. The duration of this study was four weeks but was to be stopped if leukopenia (WBC<[…]) or severe hepatocellular injury (ALT or AST 2× upper limit) developed. All patients received albendazole (400 mg scored tablets, Smith Kline Beecham, Australian subsidiary) 10 mg/kg orally in two or three divided doses for a planned duration of four weeks. This is the clinical dose of albendazole employed in the treatment of parasitic diseases. Patients were evaluated every three days by clinical examination together with full blood tests to monitor tumor markers, hematopoesis, liver and kidney function toxicity. A partial response (PR) was defined as a 50% or more decrease in the value of the markers. In addition there must be no new lesions or progression of any other lesions. Stable disease was defined as a decrease of less than 50%, or an increase of less than 25% in the value of tumor markers, while progressive disease (PD) was a 25% or more increase in the value of the tumor markers or the appearance of any new lesions.

[2] = tested on: SKHEP-1 subcutaneous tumor; assay: Tumor formation in nude mice; assay type: in vivo, BALB/c Nu/Nu mice; conditions: for maximum proliferation index (MPI), Ki-67: mean±s.e.m.
Description: 6 to 10 weeks old male BALB/c Nu/Nu mice (Animal Resources Center, Perth, Australia) were inoculated subcutaneously with 10^6 SKHEP-1 cells into the right flank. 24 hours after inoculation animals were randomly assigned to one of the treatment groups (n=10 per group), receiving 25, 50 or 150 mg/kg twice daily oral albendazole suspended in sesame oil for 20 days.
The control group was treated with the vehicle (sesame oil). Using vernier calipers, tumor diameter (mm) was measured on day eight and then every three days up to day 20-post tumor cell inoculation. Tumor volumes were calculated using the formula: ab^2/2 where a and b are the […] diameters in millimeters, respectively and a piece of the tumor was preserved in paraffin for immunohistochemical determination of maximum proliferation index (MPI). Here, after fixation, the specimen was processed for the detection of Ki-67 antigen with the monoclonal antibody MIB1 according to the method described by McCormick.
The animal model was chosen on the basis of SKHEP-1 being the most tumorigenic human liver cancer cell line in nude mice and previous experience with the model.

[3] = at all times after a 400 mg oral dose; cited from earlier work
HepG2 = assay: [3H]thymidine incorporation assay, HepG2; assay type: cell-based, human; conditions: 5 days
Description: (§1) HepG2, Hep3-B, Hep1-6, SKHEP-1, PLC/PRF/5, and HTC cells were obtained from European Collection of Cell Cultures (ECACC; U.K), Novikoff was obtained from Cancer Research Centre (DKFZ) Heidelberg, Germany. Cells were cultured in MEM or DMEM supplemented with 10% FBS, 50 units/ml penicillin, 50 units/ml streptomycin, 25 μg/ml amphotericin B (Gibco, Grand Island, N.Y.) and maintained subconfluent at 37° C. in humidified incubators containing 5% CO2. Albendazole (Sigma, Australian subsidiary) was dissolved in absolute ethanol at concentrations that were 1000-fold higher than the final medium concentration.

Novikoff = assay: [3H]thymidine incorporation assay, Novikoff; assay type: cell-based, rat; conditions: 5 days
Description: as §1

LOVO cells = assay: DNA laddering (apoptosis), LOVO; assay type: cell-based, human; conditions: 1 μM, 16 hours
Description: Similar results were also obtained with the human colorectal cell line LOVO.

NIH:OVCAR-3 = assay: Thymidine assay, ovarian cancer cell line; assay type: cell-based, human
Description: To study the feasibility of using albendazole in the treatment of peritoneal disease, the human ovarian cancer cell line NIH:OVCAR-3 was selected. This is a cell line that grows quite slowly but is tumorogenic in nude mice therefore allowing for the drug to be studied under both in-vitro and in-vivo conditions.
After finding the right conditions for the growth of cells in culture, cells were treated for 5 days with various concentrations of albendazole.

For `CCCSc1ccc2nc(NC(=O)OC)[nH]c2c1` [albendazole, methyl 5-propylthio-1H-benzimidazole-2-yl carbamate], the “disease outcome by tumor markers” value ([1]; 10 mg/kg/day oral, planned 28 days, nine patients (FIG. 6)) was “stabilization of the disease in three, and progression of the disease in the other two patients”, the “liver and kidney function tests” value ([1]; during the course of the trial, 10 mg/kg/day oral) was “no significant changes” and the “Comments (adverse event)” value ([1]; patient 1, HCC, 19 days treatment) was “neutropenia;”. The “Comments (adverse event)” value ([1]; patient 2, CRC, 14 days treatment) was “neutropenia;”, the “Comments (adverse event)” value ([1]; patient 8, CRC) was “neutropenia” and the “serum CEA levels” value ([1]; patient 9, for the duration of the treatment (4 weeks)) was “less than 10 μg/L”. The disease outcome ([1]; patient number 1 (HCC), treatment stopped on day 19) was “stabilization of the disease”, the fatal outcome ([1]; patient number 1, after stopping albendazole, almost certainly related to therapy) was “died of neutropaenic sepsis” and the neutropenia ([1]; patients 1, 2 and 8, drug had to be withdrawn) was “significant neutropenia developed”. The “serum CEA levels” value ([1]; patients 6, 7 and 8, 10 mg/kg/day oral) was “stable CEA levels”, the “maximum proliferation index (MPI), Ki-67” value ([2]; 50 mg/kg dose) was 22.54±1.53 and the “maximum proliferation index (MPI), Ki-67” value ([2]; 150 mg/kg dose) was 13.36±3.04. For the same compound, the mean tumor volume ([2]; 300 mg/kg dose oral in sesame oil, 20 days post inoculation, p<0.001) was 12.0±7.8 mm^3, the tumor growth ([2]; 50 and 150 mg/kg per day oral) was “slightly but not significantly retarded” and the “concentration of the unchanged drug” value [3] was “below the detection limits”. The “[3H]thymidine incorporation” value (HepG2; HepG2, albendazole 10 nM) was 93.1 ± 5.6 % control, the “[3H]thymidine incorporation” value (HepG2; HepG2, albendazole 100 nM) was 72.9 ± 6.3 % control and the “[3H]thymidine incorporation” value (HepG2; HepG2, albendazole 500 nM) was 12.2 ± 2.9 % control. The “[3H]thymidine incorporation” value (Novikoff; albendazole 10 nM) was 96.5 ± 8.8 % control, the “[3H]thymidine incorporation” value (Novikoff; albendazole 100 nM) was 71.6 ± 5.9 % control and the “[3H]thymidine incorporation” value (Novikoff; albendazole 500 nM) was 29.2 ± 3.3 % control. For the same compound, the “[3H]thymidine incorporation” value (Novikoff; albendazole 1000 nM) was 10.3 ± 1.8 % control, the “DNA laddering (apoptosis)” value (LOVO cells) was “clear laddering” and the inhibition at 0.25 µM (NIH:OVCAR-3; Homo sapiens, 120 h, OVCAR-3, 0.25 micromoles/L, 5 days) was roughly 90%. For the same compound, the inhibition at 0.5 µM (NIH:OVCAR-3; Homo sapiens, 120 h, OVCAR-3, 0.5 micromoles/L, 5 days, read-out: inhibition of cell growth) was 100%, the “lowest concentration with an effect on cell proliferation” value (NIH:OVCAR-3; OVCAR-3, 5 days) was 0.001 µmol/L and the “inhibition of proliferation (3H-thymidine uptake)” value (NIH:OVCAR-3; OVCAR-3 in vitro (FIG. 5)) was “dose dependent inhibition of proliferation”. For the same compound, the “degree of activity relative to liver or colorectal cancer cells” value (NIH:OVCAR-3; OVCAR-3 versus liver or colorectal cancer cells, fold) was roughly 10.
